Patent US8686224B2, “Plant defense signal peptides” (priority 2005, dated 2014)
“Also recorded” adds a separate entry of the source.

Test system: defense gene expression in excised Arabidopsis leaves
Assay: Excised-leaf assay, semi-quantitative RT-PCR of gene expression
Type: in vivo, Arabidopsis thaliana
Method: Excised-leaf assays. AtPep1 peptide dissolved in double distilled water was supplied to excised leaves of 3 to 4 week old Arabidopsis plants. Leaves were excised and the petioles were immersed in 800 μL centrifuge tubes containing either the peptide solution or distilled water, and placed in a closed clear plexiglass box containing a thin layer of water for humidity, and a small opening to allow air to enter. Boxes were incubated in a growth chamber under the plant growth conditions described above and sprayed with a fine mist of distilled water every half hour to ensure humidity and prevent wilting. To determine variations in basal levels of the AtproPep1 transcript among assays, four different leaves from four different plants were used for each treatment, and leaves supplied with either water or AtPep1 were taken from the same plants. Assays were terminated by immersing the leaves in liquid nitrogen.
Semi-quantitative RT-PCR analysis of relative gene expression levels. RNA was isolated using Trizol reagent and manufacturer's instructions (Invitrogen. Carlsbad Calif.), and 2 μg of RNA template was reverse transcribed with a RETROscript kit (Ambion, Austin Tex.). PCR reactions were carried out with ExTaq Hot Start polymerase and reagents (Fisher Scientific, Pittsburgh Pa.). The AtproPep1 forward and reverse primers with the respective sequences of 5′ […] 3′ (SEQ ID NO: 59) and 5′ […] 3′ (SEQ ID NO: 60) generated a 310 bp intron-spanning product. Primers to β-tubulin (At5g62690) of 5′ […] 3′ (SEQ ID NO: 73) and 5′ […] 3′ (SEQ ID NO: 74) generated a 681 base pair intron-spanning product. An initial denaturing/polymerase activating step of 5 minutes at 94° C. was followed by 31 repetitions of the following three steps: a thirty second denaturation phase at 94° C., a thirty second annealing period at 55.5° C., and a one minute elongation step at 72° C. The amplification program was terminated with a 10 minute final 72° C. elongation phase.
The products of each reaction were separated by electrophoresis and were visualized on a Bio Imaging System (SynGene, Frederick Md.) using GeneSnap version 6.00.26 software (SynGene, Frederick Md.). A high resolution image of the gel was analyzed using GeneTools analysis software version 3.02.00 (SynGene, Frederick Md.). Relative band intensities for each band were normalized to the β-tubulin band. A numerical ratio of amplified AtproPep1 cDNA to amplified tubulin cDNA was obtained for every sample. To calculate average values, semi-quantitative RT-PCR assays were performed in duplicate, and RNA extractions were performed in triplicate.
Analysis of gene expression using RT-PCR. Gene expression was analyzed using RT-PCR (Nishimura et al., Plant Cell 16:1365-1377, 2004).
Expression analysis of AtproPep1 in response to abiotic and biotic cues. As a first step in seeking a possible function for AtproPep1 and its encoded peptide, the basal expression level of the gene was assessed in leaves, stems, roots and flowers of Arabidopsis plants was studied using semi-quantitative RT-PCR analysis of AtproPep1 gene expression in response to treatment of leaves with MeJA, ethephon, MeSA, and AtPep1. The relative abundance of the proAtPep1 transcript was estimated from the expression of the β-tubulin gene as a control. Leaves were wounded by crushing once across the mid-vein with a hemostat. Plants were sprayed with a 250 μM solution of MeJA in 0.1% Triton X-100; with a 2 μM solution of MeSA in 0.1% Triton X-100 or with a 7 mM solution of ethephon in 0.1% Triton X-100. AtPep1 peptide (10 nM in water) was supplied through cut petioles of excised leaves. Total RNA was extracted and analyzed.
In order to determine whether AtPep1 regulates defense gene expression, we determined the fold induction of defense related genes in excised Arabidopsis leaves in response to 10 nM AtPep1 supplied through their cut petioles. […]

Substance: H-ATKVKAKQRGKEKVSSGRPGQHN-OH [AtPep1]
- expression of the AtproPep1 gene (10 nM through cut petioles of excised leaves, within two hours): induced expression
- expression of PDF1.2 and PR-1 (10 nM through cut petioles, 2 hr, wild type): most strongly expressed; also recorded: induced a strong expression
- expression of AtproPep1, PDF1.2 or PR-1 in mutants (10 nM, 2 hr, triple mutant fad3-2, fad7-2, fad8 and mutant ein2-1): did not induce
- expression of LOX2 and VSP2 (10 nM, two hours, wild type): not induced
- expression of PR-3, PR-4 and TAT (10 nM, two hours, wild type): expressed at lower levels
- expression of At5g64905, At5g64900, At5g64890 and At5g09980 (supplied through cut petioles of excised leaves): expressed relatively strongly
